Molecular target: T1, OX2R (Homo sapiens, UniProt O43614)
T1 construct: expressed in transfected cells; host or cells: CHO (Chinese hamster ovary) cells constitutively expressing the OX2R gene and NFAT-luciferase (CHOOX2R)
T1 sequence (O43614 1-444): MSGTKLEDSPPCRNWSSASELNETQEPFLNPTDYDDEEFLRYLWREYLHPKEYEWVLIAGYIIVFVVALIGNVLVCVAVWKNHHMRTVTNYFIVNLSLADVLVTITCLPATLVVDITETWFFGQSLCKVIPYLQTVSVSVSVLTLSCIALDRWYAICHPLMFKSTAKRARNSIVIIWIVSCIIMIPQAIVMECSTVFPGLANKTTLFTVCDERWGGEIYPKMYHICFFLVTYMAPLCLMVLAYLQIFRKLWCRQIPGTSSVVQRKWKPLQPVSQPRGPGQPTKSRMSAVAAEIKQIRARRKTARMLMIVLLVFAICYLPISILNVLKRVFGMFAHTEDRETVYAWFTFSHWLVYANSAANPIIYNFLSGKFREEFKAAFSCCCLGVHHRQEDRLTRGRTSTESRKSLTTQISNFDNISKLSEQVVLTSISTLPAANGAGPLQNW
Assay: Evaluation of agonist activity against OX2R (CHOOX2R cells, Fura2AM fluorescence, FDSS3000)
Type: cell-based
Procedure: Evaluation of Agonist Activity Against OX2R
NFAT-luciferase gene and OX2R gene were each constitutively expressed in CHO cell, which is a cell line derived from Chinese hamster ovary to establish a cell line (CHOOX2R). The cells thereof were sown on a 96 well plate at 10000 cells/well, and cultured in a 5% FBS-added DMEM medium for 48 hr. […] After washing, HEPES buffer (75 μL) was added, a test compound solution (25 μL) was added, and changes in the fluorescence intensity were measured by FDSS3000 (Hamamatsu Photonics K.K.). The test compound was dissolved in DMSO (final concentration of DMSO was 1%), and diluted with HEPES buffer to a final concentration of 0.1 μM, 1.0 μM or 10 μM.

[1] = test compound 0.1 μM; relative to orexin-A as full agonist (100%); CHOOX2R cells
[2] = test compound 1.0 μM; relative to orexin-A as full agonist (100%); CHOOX2R cells
[3] = test compound 10 μM; relative to orexin-A as full agonist (100%); CHOOX2R cells
[4] = OX2R agonist activity; CHOOX2R cells
[5] = conversion with orexin-A as full agonist (maximum agonist activity 100%)
[6] = test compound 0.1 μM; CHOOX2R cells; relative to orexin-A as full agonist (100%)
[7] = test compound 1.0 μM; CHOOX2R cells; relative to orexin-A as full agonist (100%)
[8] = test compound 10 μM; CHOOX2R cells; relative to orexin-A as full agonist (100%)

| SMILES | Response (0.1 μM (%)) [1] [%] | Response (1.0 μM (%)) [2] [%] | Response (10 μM (%)) [3] [%] | EC50 [4] [nM] | Emax [5] [%] | Response (0.1 μM (%)) [6] [%] | Response (1.0 μM (%)) [7] [%] | Response (10 μM (%)) [8] [%] |
| --- | --- | --- | --- | --- | --- | --- | --- | --- |
| COc1cccc(C(=O)NCCNc2cccc(NS(=O)(=O)c3cc(-c4c(F)cccc4OC)ccc3OC)c2)c1 [Example 24, N-(2-((3-(2′-fluoro-4,6′-dimethoxy-[1,1′-biphenyl]-3-ylsulfonamide)phenyl)amino)ethyl)-3-methoxybenzamide] | <5 | <5 | <5 |  |  |  |  |  |
| COc1ccccc1C(=O)NCCNc1cccc(NS(=O)(=O)c2cc(-c3cc(Cl)ccc3Cl)ccc2OC)c1 [Example 25, N-(2-((3-(2′,5′-dichloro-4-methoxy-[1,1′-biphenyl]-3-ylsulfonamide)phenyl)amino)ethyl)-2-methoxybenzamide] | <5 | 7 | 38 |  |  |  |  |  |
| COc1cccc(C(=O)NCCNc2cccc(NS(=O)(=O)c3cc(-c4cc(Cl)ccc4Cl)ccc3OC)c2)c1 [Example 26, N-(2-((3-(2′,5′-dichloro-4-methoxy-[1,1′-biphenyl]-3-ylsulfonamide)phenyl)amino)ethyl)-3-methoxybenzamide] | <5 | 5 | 29 |  |  |  |  |  |
| COc1ccccc1C(=O)NCCNc1cccc(NS(=O)(=O)c2cc(-c3cc(Cl)cc(Cl)c3)ccc2OC)c1 [Example 27, N-(2-((3-(3′,5′-dichloro-4-methoxy-[1,1′-biphenyl]-3-ylsulfonamide)phenyl)amino)ethyl)-2-methoxybenzamide] | <5 | <5 | <5 |  |  |  |  |  |
| COc1cccc(C(=O)NCCNc2cccc(NS(=O)(=O)c3cc(-c4cc(Cl)cc(Cl)c4)ccc3OC)c2)c1 [Example 28, N-(2-((3-(3′,5′-dichloro-4-methoxy-[1,1′-biphenyl]-3-ylsulfonamide)phenyl)amino)ethyl)-3-methoxybenzamide] | <5 | <5 | <5 |  |  |  |  |  |
| COc1ccccc1C(=O)NCCNc1cccc(NS(=O)(=O)c2cc(-c3cc(F)ccc3Cl)ccc2OC)c1 [Example 32, N-(2-((3-(2′-chloro-5′-fluoro-4-methoxy-[1,1′-biphenyl]-3-ylsulfonamide)phenyl)amino)ethyl)-2-methoxybenzamide] | <5 | 26 | 75 |  |  |  |  |  |
| COc1cccc(C(=O)NCCNc2cccc(NS(=O)(=O)c3cc(-c4cc(F)ccc4Cl)ccc3OC)c2)c1 [Example 33, N-(2-((3-(2′-chloro-5′-fluoro-4-methoxy-[1,1′-biphenyl]-3-ylsulfonamide)phenyl)amino)ethyl)-3-methoxybenzamide] | <5 | 31 | 93 |  |  |  |  |  |
| COc1ccc(F)c(-c2ccc(OC)c(S(=O)(=O)Nc3cccc(NCCNC(=O)c4ccccc4OC)c3)c2)c1 [Example 34, N-(2-((3-(2′-fluoro-4,5′-dimethoxy-[1,1′-biphenyl]-3-ylsulfonamide)phenyl)amino)ethyl)-2-methoxybenzamide] |  |  |  |  |  | 13 | 64 | 123 |
| COc1cccc(C(=O)NCCNc2cccc(NS(=O)(=O)c3cc(-c4cc(OC)ccc4F)ccc3OC)c2)c1 [Example 35, N-(2-((3-(2′-fluoro-4,5′-dimethoxy-[1,1′-biphenyl]-3-ylsulfonamide)phenyl)amino)ethyl)-3-methoxybenzamide] |  |  |  |  |  | 13 | 68 | 127 |
| COc1cc(OC)cc(-c2ccc(OC)c(S(=O)(=O)Nc3cccc(NCCNC(=O)c4ccccc4OC)c3)c2)c1 [Example 36, 2-methoxy-N-(2-((3-(3′,4,5′-trimethoxy-[1,1′-biphenyl]-3-ylsulfonamide)phenyl)amino)ethyl)benzamide] |  |  |  |  |  | <5 | 11 | 68 |
| COc1ccccc1C(=O)NCCNc1cccc(NS(=O)(=O)c2cc(-c3cccc(N)c3)ccc2OC)c1 [Example 37, N-(2-((3-(3′-amino-4-methoxy-[1,1′-biphenyl]-3-ylsulfonamide)phenyl)amino)ethyl)-2-methoxybenzamide] |  |  |  |  |  | 16 | 102 | 163 |
| COc1ccccc1C(=O)NCCNc1cccc(NS(=O)(=O)c2cc(-c3cccc(NCC(C)C)c3)ccc2OC)c1 [Example 38, N-(2-((3-(3′-(isobutylamino)-4-methoxy-[1,1′-biphenyl]-3-ylsulfonamide)phenyl)amino)ethyl)-2-methoxybenzamide] |  |  |  |  |  | 8 | 37 | 113 |
| COc1ccccc1C(=O)NCCNc1cccc(NS(=O)(=O)c2cc(-c3cccc(CO)c3)ccc2OC)c1 [Example 39, N-(2-((3-(3′-(hydroxymethyl)-4-methoxy-[1,1′-biphenyl]-3-ylsulfonamide)phenyl)amino)ethyl)-2-methoxybenzamide] |  |  |  |  |  | <5 | 27 | 102 |

Next, values leading:

| Response (0.1 μM (%)) [1] [%] | Response (1.0 μM (%)) [2] [%] | Response (10 μM (%)) [3] [%] | EC50 [4] [nM] | Emax [5] [%] | Response (0.1 μM (%)) [6] [%] | Response (1.0 μM (%)) [7] [%] | Response (10 μM (%)) [8] [%] | SMILES |
| --- | --- | --- | --- | --- | --- | --- | --- | --- |
| <5 | 16 | 73 | 800 | 54 |  |  |  | COc1cccc(C(=O)NCCNc2cccc(NS(=O)(=O)c3cc(-c4cccc(Cl)c4)ccc3OC)c2)c1 [Example 29, N-(2-((3-(3′-chloro-4-methoxy-[1,1′-biphenyl]-3-ylsulfonamide)phenyl)amino)ethyl)-3-methoxybenzamide] |
| 6 | 67 | 103 |  |  |  |  |  | COc1cccc(C(=O)NCCNc2cccc(NS(=O)(=O)c3cc(-c4cccc(OC)c4)ccc3OC)c2)c1 [Example 31, N-(2-((3-(3′,4-dimethoxy-[1,1′-biphenyl]-3-ylsulfonamide)phenyl)amino)ethyl)-3-methoxybenzamide] |
|  |  |  | 50 | 74 | 35 | 74 | 74 | COc1ccccc1C(=O)NCCNc1cccc(NS(=O)(=O)c2cc(-c3cccc(C(=O)N(C)C)c3)ccc2OC)c1 [Example 40, 4′-methoxy-3′-(N-(3-((2-(2-methoxybenzamido)ethyl)amino)phenyl)sulfamoyl)-N,N-dimethyl-[1,1′-biphenyl]-3-carboxamide] |
|  |  |  | 33 | 57 | 70 | 107 | 115 | COc1cccc(C(=O)NCCNc2cccc(NS(=O)(=O)c3cc(-c4cccc(C(=O)N(C)C)c4)ccc3OC)c2)c1 [Example 41, 4′-methoxy-3′-(N-(3-((2-(3-methoxybenzamido)ethyl)amino)phenyl)sulfamoyl)-N,N-dimethyl-[1,1′-biphenyl]-3-carboxamide] |
|  |  |  | 31 | 90 | 65 | 103 | 114 | COc1ccc(-c2cccc(C(=O)N(C)C)c2)cc1S(=O)(=O)Nc1cccc(NCCNC(=O)c2ccccc2Cl)c1 [Example 42, 3′-(N-(3-((2-(2-chlorobenzamido)ethyl)amino)phenyl)sulfamoyl)-4′-methoxy-N,N-dimethyl-[1,1′-biphenyl]-3-carboxamide] |
|  |  |  | 300 | 94 | <5 | 55 | 94 | COc1ccc(-c2cccc(C(=O)N(C)C)c2)cc1S(=O)(=O)Nc1cccc(NCCNC(=O)c2ccccc2F)c1 [Example 43, 3′-(N-(3-((2-(2-fluorobenzamido)ethyl)amino)phenyl)sulfamoyl)-4′-methoxy-N,N-dimethyl-[1,1′-biphenyl]-3-carboxamide] |
|  |  |  | 1050 | 94 | <5 | 28 | 94 | COc1ccc(C(=O)NCCNc2cccc(NS(=O)(=O)c3cc(-c4cccc(C(=O)N(C)C)c4)ccc3OC)c2)cc1 [Example 44, 4′-methoxy-3′-(N-(3-((2-(4-methoxybenzamido)ethyl)amino)phenyl)sulfamoyl)-N,N-dimethyl-[1,1′-biphenyl]-3-carboxamide] |
|  |  |  | 115 | 100 | <5 | 80 | 98 | COc1ccc(-c2cccc(C(=O)N(C)C)c2)cc1S(=O)(=O)Nc1cccc(NCCNC(=O)c2c(F)cccc2F)c1 [Example 45, 3′-(N-(3-((2-(2,6-difluorobenzamido)ethyl)amino)phenyl)sulfamoyl)-4′-methoxy-N,N-dimethyl-[1,1′-biphenyl]-3-carboxamide] |

From US9815787B2, “Sulfonamide derivative or pharmaceutically acceptable acid addition salt thereof” (UNIVERSITY OF TSUKUBA, priority 2013, dated 2017)
